Entries after “also recorded” stand apart in the source; their conditions may differ.
What was measured:
[1] = tested on: starvation-induced autophagy in mice tissues; test: Starved mice: tissue AcCoA, protein acetylation and starvation-induced autophagy; format: in vivo
Protocol: C57BL/6 mice (Charles River Laboratory, […], France) were bred and maintained according to both the FELASA and the Animal Experimental Ethics Committee Guidelines (Val de Marne, France). Mice were housed in a temperature-controlled environment with 12 h light/dark cycles and received food and water ad libitum. For HC-related experiments, mice were injected intraperitoneally with a single 100 mg/kg dose and 6 h later were sacrificed and tissues were immediately frozen in liquid nitrogen. […] Tissue extracts were then centrifuged at 12,000 g at 4° C. and supernatants were collected. Protein concentration in the supernatants was evaluated by the bicinchoninic acid technique (BCA protein assay kit, Pierce Biotechnology, Rockford, Ill.). For hydroxycitrate-related weight-loss experiments, autophagy-deficient Atg4b^-/- mice were used. Atg4b^-/- mice have been previously described (Mariño et al., 2010). For HC-, spermidine-, and resveratrol-related experiments (tumour growth) mice were intraperitoneally injected with respectively 100 mg/kg, 50 mg/kg and 100 mg/kg doses at day 8 and day 9. At day 9, mice were intraperitoneally injected with 2 mg/kg single dose of Mitoxanthrone. For starvation related experiment (tumour growth) mice were treated as previously described (Fabrizio et. al., 2010). To avoid post-mortem autophagy induction, dead mice were immediately perfused with 4% paraformaldehyde (w:v in PBS, pH 7.4). Tissues were then harvested and further fixed with the same solution for at least 4 h, followed by treatment with 15% sucrose (w:v in PBS) for 4 h and with 30% sucrose (w:v in PBS) overnight. Tissue samples were embedded in Tissue-Tek OCT compound (Sakura Finetechnical Co. Ltd., Tokyo, Japan) and stored at -70° C. […] In each organ, the number of GFP-LC3 dots was counted in five independent visual fields from at least five mice using a TCS SP2 confocal fluorescence microscope (Leica Microsystems GmbH). […]

[2] = tested on: CD4+CD25+Foxp3+ Tregs in tumor bed; test: Detection of tumor-infiltrated Tregs (flow cytometry); format: in vivo, mice; details: compared with MTX group
Protocol: Tumors were digested using Miltenyi Biotec tumor digestion kit according to manufacturer's protocol. Single cells were resuspended in RPMI 1640 and sequentially passed through 100 μm and 70 μM nylon cell strainers (BD Biosciences). Leukocytes were purified using Miltenyi Biotec magnetic beads conjugated to monoclonal anti-mouse CD45 (clone 30F11.1) according to the supplier's recommendations. Prior to staining of TIL populations for flow cytometry analysis, samples were incubated with LIVE/DEAD® Fixable Yellow Dead Cell dyes (Invitrogen) to discriminate viable cells from damaged cells. TILs were incubated with antibodies against CD16/CD32 before staining with fluorescent-labeled antibodies targeting T-cell surface markers. Then, cells were permeabilized and fixed with eBioscience Foxp3/Transcription Factor Staining Buffer Set and stained for intracellular Foxp3. Data were acquired using a MACSQuant flow cytometer (Miltenyi Biotec) and analyzed with FlowJo v. X PC software (Treestar, Oreg., USA). Tregs were defined as CD3+ CD4+ CD8− CD25+ Foxp3+ T-cell population.

MCA205 cells = test: Labeling of vesicular ATP in vitro (quinacrine/PI); format: cell-based, murine; details: compared to MTX alone
Protocol: MCA205 cells were loaded with […] quinacrine in Krebs-Ringer solution (125 mM NaCl, 5 mM KCl, 1 mM MgSO4, 0.7 mM KH2PO4, 2 mM CaCl2), 6 mM glucose and 25 mM HEPES buffer, pH 7.4) for 30 min at 37 1C. Thereafter, cells were co-stained for 10 min with […] propidium iodide (PI) and […] Hoechst 33342 (both from Molecular Probes-Life Technologies), rinsed with Krebs-Ringer solution and analyzed by automated fluorescence microscopy.

Compound: COC(=O)CCC(=O)C(=O)OC [DMKG, dimethyl-α-ketoglutarate]
- AcCoA levels in mice tissues after 24 h starvation ([1]; intraperitoneal injection, starved mice, vs vehicle): increased cardiac AcCoA levels; also recorded: avoided the depletion of AcCoA
- cytoplasmic protein acetylation in tissues of starved mice ([1]; parenteral administration): avoided the depletion of AcCoA, the deacetylation of cytosolic proteins; also recorded: avoided the depletion of AcCoA and the deacetylation of cytoplasmic proteins
- starvation-induced autophagy in vivo ([1]; starved mice, LC3 lipidation and GFP-LC3 in heart and muscle): inhibited starvation-induced autophagy in vivo; also recorded: efficiently reduced autophagy in vivo

Compound: O=C(O)CC(O)(C(=O)O)C(O)C(=O)O (centres unmarked) [HC, hydroxycitrate]
- Foxp3+ Tregs in tumor bed, combined with MTX [2]: reduces Treg infiltration in tumor bed; also recorded: particularly efficient in reducing the frequency of Foxp3^+ Tregs in tumors
- ATP release in vitro, combined with MTX (MCA205 cells): marked increase in ATP release; also recorded: particularly efficient in inducing the autophagy-dependent release of ATP

From patent US11040052B2, “Methods and pharmaceutical compositions for modulating autophagy in a subject in need thereof” (INSERM (INSTITUT NATIONAL DE LA SANTE ET DE LA RECHERCHE …, priority 2013, dated 2021)
